How the values were obtained:
p110β/p85α = p110β/p85α (Homo sapiens, UniProt P42338); experiment: PI3K β inhibition assay (TLC lipid kinase or HTRF); assay type: biochemical; details: read-out: PI3K β IC50
How it was run: (§1)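 IC50 from TLC lipid kinase assay (25 mM HEPES pH 7.4, 10 mM MgCl2, 100 μg/ml phosphatidylinositol, 10 or 100 μM γ-32P-ATP, 5 min RT, phosphorimager) at 10–12 two-fold dilutions, or HTRF (10 μM PIP2, 10 μM ATP, 1 h RT) measuring PIP3 by TR-FRET; 2% DMSO final.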

Balb/c splenic B cells = experiment: B cell activation and proliferation assay (Alamar Blue); assay type: cell-based, mouse; details: Mus musculus, B-cell
Procedure: The ability of one or more subject compounds to inhibit B cell activation and proliferation is determined according to standard procedures known in the art. For example, an in vitro cellular proliferation assay is established that measures the metabolic activity of live cells. The assay is performed in a 96 well microtiter plate using Alamar Blue reduction. Balb/c splenic B cells are purified over a Ficoll-Paque™ PLUS gradient followed by magnetic cell separation using a MACS B cell Isolation Kit (Miletenyi). Cells are plated in 90 ul at 50,000 cells/well in B Cell Media (RPMI+10% FBS+Penn/Strep+50 uM bME+5 mM HEPES). A compound disclosed herein is diluted in B Cell Media and added in a 10 ul volume. Plates are incubated for 30 min at 37 C and 5% CO2 (0.2% DMSO final concentration). A 50 ul B cell stimulation cocktail is then added containing either 10 ug/ml LPS or 5 ug/ml F(ab′)2 Donkey anti-mouse IgM plus 2 ng/ml recombinant mouse IL4 in B Cell Media. Plates are incubated for 72 hours at 37° C. and 5% CO2. A volume of 15 uL of Alamar Blue reagent is added to each well and plates are incubated for 5 hours at 37 C and 5% CO2. Alamar Blue fluoresce is read at 560Ex/590Em, and IC50 or EC50 values are calculated using GraphPad Prism 5.

p110δ/p85α = p110δ/p85α (Homo sapiens (Human), UniProt O00329); experiment: PI3K δ inhibition assay (TLC lipid kinase or HTRF); assay type: biochemical
Sequence of p110δ/p85α (O00329 whole entry): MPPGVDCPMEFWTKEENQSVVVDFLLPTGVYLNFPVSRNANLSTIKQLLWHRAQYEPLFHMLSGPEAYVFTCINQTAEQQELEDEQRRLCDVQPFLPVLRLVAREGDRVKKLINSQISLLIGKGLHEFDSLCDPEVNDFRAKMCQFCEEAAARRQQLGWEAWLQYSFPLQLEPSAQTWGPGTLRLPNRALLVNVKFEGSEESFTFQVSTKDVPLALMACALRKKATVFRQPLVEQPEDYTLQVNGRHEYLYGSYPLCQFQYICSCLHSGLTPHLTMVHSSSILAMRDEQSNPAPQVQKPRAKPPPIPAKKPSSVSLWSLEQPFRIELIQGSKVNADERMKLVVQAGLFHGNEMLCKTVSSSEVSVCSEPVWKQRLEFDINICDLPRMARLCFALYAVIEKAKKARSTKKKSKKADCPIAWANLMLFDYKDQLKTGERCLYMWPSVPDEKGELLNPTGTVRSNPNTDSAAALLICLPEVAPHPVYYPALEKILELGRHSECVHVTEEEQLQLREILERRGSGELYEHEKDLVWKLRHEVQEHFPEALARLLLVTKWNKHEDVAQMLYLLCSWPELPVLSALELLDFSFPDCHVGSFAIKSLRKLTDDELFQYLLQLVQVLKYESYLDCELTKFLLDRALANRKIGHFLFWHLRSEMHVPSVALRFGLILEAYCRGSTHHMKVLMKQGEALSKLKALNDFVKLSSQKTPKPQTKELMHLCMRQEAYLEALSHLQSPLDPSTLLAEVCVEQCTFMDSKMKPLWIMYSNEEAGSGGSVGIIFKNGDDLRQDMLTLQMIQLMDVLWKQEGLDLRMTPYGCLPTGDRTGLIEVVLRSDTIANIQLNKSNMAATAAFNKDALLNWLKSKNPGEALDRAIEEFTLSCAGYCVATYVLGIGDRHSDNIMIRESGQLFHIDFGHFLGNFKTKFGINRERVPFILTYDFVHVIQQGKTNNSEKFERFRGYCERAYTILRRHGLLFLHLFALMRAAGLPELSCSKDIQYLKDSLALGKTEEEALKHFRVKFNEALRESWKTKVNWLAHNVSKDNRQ
Sequence of p110δ/p85α (P27986 whole entry partner): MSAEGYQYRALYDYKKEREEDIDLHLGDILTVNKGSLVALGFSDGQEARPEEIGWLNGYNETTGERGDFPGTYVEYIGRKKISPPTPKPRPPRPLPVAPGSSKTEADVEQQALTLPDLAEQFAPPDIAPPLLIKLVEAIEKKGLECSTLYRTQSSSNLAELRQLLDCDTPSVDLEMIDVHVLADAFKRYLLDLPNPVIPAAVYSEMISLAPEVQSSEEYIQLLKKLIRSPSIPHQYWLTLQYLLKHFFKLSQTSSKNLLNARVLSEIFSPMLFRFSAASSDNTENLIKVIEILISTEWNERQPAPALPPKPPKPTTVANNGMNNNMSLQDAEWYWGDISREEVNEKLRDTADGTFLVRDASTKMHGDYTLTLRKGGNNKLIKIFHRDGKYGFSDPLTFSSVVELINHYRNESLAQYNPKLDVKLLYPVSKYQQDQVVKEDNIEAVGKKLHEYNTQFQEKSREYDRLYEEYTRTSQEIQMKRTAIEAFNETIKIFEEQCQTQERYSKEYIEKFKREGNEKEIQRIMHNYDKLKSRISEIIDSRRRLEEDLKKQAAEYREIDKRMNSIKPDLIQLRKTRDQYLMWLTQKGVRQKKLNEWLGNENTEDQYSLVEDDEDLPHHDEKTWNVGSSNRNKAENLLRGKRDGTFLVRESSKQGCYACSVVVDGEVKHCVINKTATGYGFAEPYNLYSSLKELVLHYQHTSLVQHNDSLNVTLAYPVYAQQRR
How it was run: as §1

p110γ = p110γ (Homo sapiens (Human), UniProt P48736); experiment: PI3K γ inhibition assay (TLC lipid kinase or HTRF); assay type: biochemical
Sequence of p110γ (P48736 whole entry): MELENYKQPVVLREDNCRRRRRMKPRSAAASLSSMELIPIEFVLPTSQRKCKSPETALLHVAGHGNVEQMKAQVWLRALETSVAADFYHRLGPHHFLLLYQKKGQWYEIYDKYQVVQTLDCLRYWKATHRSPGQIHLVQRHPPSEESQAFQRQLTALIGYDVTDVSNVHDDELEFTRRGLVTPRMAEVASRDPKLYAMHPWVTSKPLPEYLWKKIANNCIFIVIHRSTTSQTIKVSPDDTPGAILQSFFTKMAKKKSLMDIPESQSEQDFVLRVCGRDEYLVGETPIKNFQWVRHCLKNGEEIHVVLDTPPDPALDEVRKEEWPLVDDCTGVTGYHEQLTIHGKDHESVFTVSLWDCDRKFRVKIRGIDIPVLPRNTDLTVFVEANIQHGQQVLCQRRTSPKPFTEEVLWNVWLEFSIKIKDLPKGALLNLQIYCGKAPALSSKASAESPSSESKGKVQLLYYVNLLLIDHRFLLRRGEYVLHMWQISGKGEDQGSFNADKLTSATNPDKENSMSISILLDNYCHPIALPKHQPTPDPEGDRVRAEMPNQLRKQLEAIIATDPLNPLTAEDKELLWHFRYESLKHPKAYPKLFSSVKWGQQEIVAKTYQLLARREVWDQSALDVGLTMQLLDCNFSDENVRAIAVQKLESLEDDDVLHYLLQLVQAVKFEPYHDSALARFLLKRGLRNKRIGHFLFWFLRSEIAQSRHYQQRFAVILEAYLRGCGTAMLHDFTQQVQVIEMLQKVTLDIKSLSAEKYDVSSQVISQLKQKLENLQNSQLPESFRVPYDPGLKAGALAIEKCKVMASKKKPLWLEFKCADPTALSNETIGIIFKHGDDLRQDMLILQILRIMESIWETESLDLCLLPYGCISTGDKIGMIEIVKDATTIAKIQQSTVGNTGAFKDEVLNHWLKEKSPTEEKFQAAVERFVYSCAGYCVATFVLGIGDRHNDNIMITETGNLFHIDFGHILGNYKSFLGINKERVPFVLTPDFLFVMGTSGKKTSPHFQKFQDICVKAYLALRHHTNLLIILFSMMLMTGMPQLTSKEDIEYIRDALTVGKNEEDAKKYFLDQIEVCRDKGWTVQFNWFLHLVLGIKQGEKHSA
How it was run: as §1

p110α/p85α = p110α/p85α (Homo sapiens (Human), UniProt P42336); experiment: PI3K α inhibition assay (TLC lipid kinase or HTRF); assay type: biochemical
Sequence of p110α/p85α (P42336 whole entry): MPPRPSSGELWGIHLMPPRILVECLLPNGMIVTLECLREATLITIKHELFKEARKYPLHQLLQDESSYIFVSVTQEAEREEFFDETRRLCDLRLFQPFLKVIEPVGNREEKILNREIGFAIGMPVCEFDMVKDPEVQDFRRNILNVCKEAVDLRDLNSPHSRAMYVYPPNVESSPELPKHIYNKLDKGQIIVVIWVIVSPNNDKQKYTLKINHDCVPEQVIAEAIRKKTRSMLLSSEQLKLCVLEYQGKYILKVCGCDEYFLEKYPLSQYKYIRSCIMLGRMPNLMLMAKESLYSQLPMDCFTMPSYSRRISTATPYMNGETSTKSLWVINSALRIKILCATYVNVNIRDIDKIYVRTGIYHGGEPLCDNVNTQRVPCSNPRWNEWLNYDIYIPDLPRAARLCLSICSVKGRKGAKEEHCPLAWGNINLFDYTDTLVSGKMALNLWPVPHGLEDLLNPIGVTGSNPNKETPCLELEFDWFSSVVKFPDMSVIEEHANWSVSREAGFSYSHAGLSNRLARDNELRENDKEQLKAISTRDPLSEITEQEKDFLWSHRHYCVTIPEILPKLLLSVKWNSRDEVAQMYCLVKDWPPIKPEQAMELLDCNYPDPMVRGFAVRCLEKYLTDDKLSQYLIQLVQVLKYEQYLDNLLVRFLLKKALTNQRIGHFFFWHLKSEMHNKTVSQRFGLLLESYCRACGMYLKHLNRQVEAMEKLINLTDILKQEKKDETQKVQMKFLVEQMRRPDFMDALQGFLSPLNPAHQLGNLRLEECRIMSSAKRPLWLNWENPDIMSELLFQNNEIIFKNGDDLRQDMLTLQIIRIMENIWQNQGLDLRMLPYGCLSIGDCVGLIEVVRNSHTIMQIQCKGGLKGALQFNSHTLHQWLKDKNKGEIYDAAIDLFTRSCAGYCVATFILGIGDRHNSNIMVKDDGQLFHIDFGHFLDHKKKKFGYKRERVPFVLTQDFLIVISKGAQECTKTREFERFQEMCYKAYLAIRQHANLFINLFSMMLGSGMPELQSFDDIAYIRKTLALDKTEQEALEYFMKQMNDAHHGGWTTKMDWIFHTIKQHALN
Sequence of p110α/p85α (P27986 whole entry partner): as the sequence (P27986 whole entry partner) above
How it was run: as §1

Sequence of p110β/p85α (P42338 whole entry, looked up): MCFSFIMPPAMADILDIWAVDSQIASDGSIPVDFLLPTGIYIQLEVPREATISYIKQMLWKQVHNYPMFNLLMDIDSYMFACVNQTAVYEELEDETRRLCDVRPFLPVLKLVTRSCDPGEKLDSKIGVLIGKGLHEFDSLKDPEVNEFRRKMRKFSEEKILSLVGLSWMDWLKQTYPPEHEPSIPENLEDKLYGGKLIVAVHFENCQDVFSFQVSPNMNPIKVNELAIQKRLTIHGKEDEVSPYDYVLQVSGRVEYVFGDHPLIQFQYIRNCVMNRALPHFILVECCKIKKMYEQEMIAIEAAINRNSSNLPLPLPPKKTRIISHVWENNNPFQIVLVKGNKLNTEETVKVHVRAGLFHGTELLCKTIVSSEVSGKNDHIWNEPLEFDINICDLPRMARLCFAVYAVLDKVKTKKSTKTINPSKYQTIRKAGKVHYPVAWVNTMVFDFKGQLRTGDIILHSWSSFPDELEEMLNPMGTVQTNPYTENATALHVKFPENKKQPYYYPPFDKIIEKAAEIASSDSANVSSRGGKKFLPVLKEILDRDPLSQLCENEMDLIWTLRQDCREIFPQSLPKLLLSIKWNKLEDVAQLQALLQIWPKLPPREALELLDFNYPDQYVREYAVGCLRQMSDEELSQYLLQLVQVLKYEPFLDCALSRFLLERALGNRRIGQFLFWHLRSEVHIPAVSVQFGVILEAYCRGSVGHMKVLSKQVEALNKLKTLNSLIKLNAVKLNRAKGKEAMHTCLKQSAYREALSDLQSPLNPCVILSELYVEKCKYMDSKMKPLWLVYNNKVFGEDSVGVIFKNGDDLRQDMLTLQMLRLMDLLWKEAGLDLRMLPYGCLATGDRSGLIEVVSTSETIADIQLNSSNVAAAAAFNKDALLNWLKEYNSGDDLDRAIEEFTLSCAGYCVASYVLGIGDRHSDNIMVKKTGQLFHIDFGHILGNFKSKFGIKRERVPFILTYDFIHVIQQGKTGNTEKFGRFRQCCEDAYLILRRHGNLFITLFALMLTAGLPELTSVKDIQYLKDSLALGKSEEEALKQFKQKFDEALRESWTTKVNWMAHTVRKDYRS

Structure (SMILES)	IC50 (p110β/p85α)	EC50 (Balb/c splenic B cells)	IC50 (p110δ/p85α)	IC50 (p110γ)	IC50 (p110α/p85α)
CC(c1cc2ccccc2nc1-c1ccccc1)n1nc(-c2cccc(O)c2)c2c(N)ncnc21 (stereo not drawn) [Compound 59]	> 1000 nM	< 100 nM	< 100 nM	100 to 1000 nM	> 1000 nM
Nc1ncnc2c1c(-c1cc(O)cc(F)c1)nn2Cc1cc2ccccc2nc1N1CCOCC1 [Compound 63]	> 1000 nM	< 100 nM	< 100 nM	100 to 1000 nM	> 1000 nM
Nc1ncnc2c1c(-c1cccc(O)c1)nn2Cc1cc2ccccc2nc1N1CCOCC1 [Compound 64]	> 1000 nM	< 100 nM	< 100 nM	100 to 1000 nM	> 1000 nM
CCN(CC)c1nc2ccccc2cc1Cn1nc(-c2cc(O)cc(F)c2)c2c(N)ncnc21 [Compound 68]	100 to 1000 nM	< 100 nM	< 100 nM	100 to 1000 nM	> 1000 nM
CC(C)N1CCN(c2nc3ccccc3cc2Cn2nc(-c3cc(O)cc(F)c3)c3c(N)ncnc32)CC1 [Compound 69]	> 1000 nM	< 100 nM	< 100 nM	> 1000 nM	> 1000 nM
CC(=O)Nc1nc2ccc(-c3nn(Cc4cc5ccccc5nc4N4CCN(C)CC4)c4ncnc(N)c34)cc2s1 [Compound 70]	< 100 nM	< 100 nM	< 100 nM	100 to 1000 nM	100 to 1000 nM
CC(c1cc2ccccc2nc1-c1ccccc1)n1nc(C#C[C@@H](C)O)c2c(N)ncnc21 (stereo partly drawn) [Compound 71]	> 1000 nM	100 to 1000 nM	< 100 nM	> 1000 nM	> 1000 nM
CC(c1cc2ccccc2nc1N1CCN(C)CC1)n1nc(-c2cccc(O)c2)c2c(N)ncnc21 (stereo not drawn) [Compound 72]	100 to 1000 nM	< 100 nM	< 100 nM	> 1000 nM	> 1000 nM
CC(c1cc2ccccc2nc1N1CCN(C)CC1)n1nc(-c2cc(O)cc(F)c2)c2c(N)ncnc21 (stereo not drawn) [Compound 73]	< 100 nM	< 100 nM	< 100 nM	> 1000 nM	> 1000 nM
CN1CCN(c2nc3ccccc3cc2Cn2nc(-c3cnc4[nH]ccc4c3)c3c(N)ncnc32)CC1 [Compound 74]	100 to 1000 nM	< 100 nM	< 100 nM	> 1000 nM	> 1000 nM
Nc1ncnc2c1c(-c1cc(O)cc(F)c1)nn2Cc1cc2ccccc2nc1NCCN1CCOCC1 [Compound 75]	> 1000 nM	< 100 nM	< 100 nM	> 1000 nM	> 1000 nM
Nc1ccnc2c1c(-c1cccc(O)c1)nn2Cc1cc2ccccc2nc1-c1cccnc1 [Compound 77]	> 1000 nM	< 100 nM	< 100 nM	> 1000 nM	> 1000 nM
Cc1ccncc1-c1nc2ccccc2cc1Cn1nc(-c2cccc(O)c2)c2c(N)ncnc21 [Compound 78]	> 1000 nM	100 to 1000 nM	< 100 nM	> 1000 nM	> 1000 nM
Nc1nc2ccc(-c3nn(Cc4cc5ccccc5nc4N4CCCC4)c4ncnc(N)c34)cc2s1 [Compound 79]	> 1000 nM	< 100 nM	< 100 nM	< 100 nM	< 100 nM
Nc1ncnc2c1c(-c1cc(O)cc(F)c1)nn2Cc1cc2ccccc2nc1CN1CCCC1 [Compound 174]	< 100 nM	< 100 nM	< 100 nM	–	> 1000 nM
Cc1nccn1-c1cc2ccccc2cc1Cn1nc(-c2ccc3nc(N)sc3c2)c2c(N)ncnc21 [Compound 175]	> 1000 nM	< 100 nM	< 100 nM	–	100 to 1000 nM
Cc1cn(-c2nc3ccccc3cc2Cn2nc(-c3ccc4nc(N)sc4c3)c3c(N)ncnc32)cn1 [Compound 176]	> 1000 nM	< 100 nM	< 100 nM	–	100 to 1000 nM
CC(=O)Nc1nc2ccc(-c3nn(Cc4cc5ccccc5nc4N4CCCC4C)c4ncnc(N)c34)cc2s1 (stereo not drawn) [Compound 186]	> 1000 nM	< 100 nM	< 100 nM	–	100 to 1000 nM
CC1CCCN1c1nc2ccccc2cc1Cn1nc(-c2ccc3nc(N)sc3c2)c2c(N)ncnc21 (stereo not drawn) [Compound 187]	100 to 1000 nM	< 100 nM	< 100 nM	–	< 100 nM

From patent US9790228B2, “Heterocyclic kinase inhibitors” (Intellikine LLC, priority 2008, dated 2017)
